Five molecules from patent US4304784A, “Composition and method for inhibiting platelet aggregation” (Takeda Chemical Industries, Ltd., priority 1978, dated 1981) can be followed below.

For series [1], the system named is ADP-induced platelet aggregation. Briefly: Inhibitory activity to the ADP-induced platelet aggregation measured by the platelet-counting-method, rat PRP. The format is cell-based. To be noted: platelet counting (Coulter Counter). As for the experimental part:
(b) Inhibitory activity to the ADP-induced platelet aggregation measured by the platelet-counting-method.
The test drug was dissolved in Na-isotonic 0.02 M Tris-HCl buffer (pH 7.4) containing 1% of dimethylformamide and to 1.5 ml of the test drug solution was added 0.5 ml of the rat-PRP. The mixture was incubated at 37° C. for one minute, followed by the addition of 1 ml of 5×10^-5 M-ADP-physiological saline, and further incubated for 45 seconds. To the solvent as mentioned above was added rat-PRP of the same volume as above. The mixture was incubated at 37° C. for one minute, which was used as the control preparation.
The rate of non-aggregation (inhibitory rate of aggregation) was assayed against the control by counting the number of the platelets in each sample as a single platelet by means of Coulter Counter and by determining the number of the platelets after the addition of ADP as non-aggregated platelets.

The test system of a further series is mice. To be noted: mouse, in vivo. The source says: (3) The toxicity of compound (I)
Series [2] has as its system platelet aggregation by ADP. Briefly: Platelet aggregation inhibitory activity after oral administration to rats (blood sampled one hour after dosing). The format is in vivo. To be noted: rat. The method, then:
(§1) With a siliconized injection syringe wetted with heparin, a blood sample was taken from the descending artery of a rat and centrifuged at 4° C. and 1,000 r.p.m. for 10 minutes to obtain a platelet-rich plasma (PRP). The test drug solutions were prepared as follows. The test drug was dissolved in 0.02 M Tris-HCl buffer containing 1% of dimethylformamide and isotonicated with sodium (pH 7.4). To 0.4 ml of the above PRP was added 3.0 ml of the test drug solution, followed by the addition of 0.1 ml of 10^-4 M ADP. The resultant aggregation of platelets was measured with an aggregation meter [Nippon Bunko Medical K.K.]. The activity of the test drug was first assayed by determining the primary aggregation inhibitory effect in terms of inhibition rate (%) in relation to the maximum light transmittance of control PRP which is altered by ADP.
(2) The platelet aggregation inhibitory activity of Compound (I) (oral administration)
In one hour after oral administration of the test drug to rats, a blood sample was taken from each of the tested rats and the inhibition rate was assayed in accordance with the procedure as mentioned above (1)-a).

Series [3] relates to primary aggregation of platelets by ADP. Briefly: Inhibitory activity to the (primary) platelet aggregation induced by ADP, aggregation meter, rat PRP. The format is cell-based. To be noted: average of 5 cases. The method, then:
(a) Inhibitory activity to the platelet aggregation induced by ADP (adenosine diphosphate)
as §1
The inhibition rates shown are each an average of 5 cases.

Series [4] relates to thrombocyte (platelet) aggregation. Briefly: Inhibition activity of platelet aggregation in mammalian blood (general statement).

Like-named read-outs stand apart in the source and are kept apart here.

In the case of `O=C1c2ccccc2SC12CC2` [Compound (I), 3-oxo-2,3-dihydro[1]benzothiophene-2-spirocyclopropane], the entries for the “Rate of inhibition of the aggregation” value in series [1] (0.5 × 10^-4 mol. conc.), in series [1] (1 × 10^-4 mol. conc.) and in series [1] (5 × 10^-4 mol. conc.) were 13.02 ± 2.20%, 16.09 ± 3.14% and 80.98 ± 2.92%, respectively. For the same molecule, the toxic reactions entry in the series on mice (ip, 100 mg/kg) was “nor was any toxic reaction noted”; in the series with mice (po, 300 mg/kg), “No toxic reactions were elicited”. The “Rate of inhibition of the platelet aggregation by ADP” value was -3.6% in series [2] (5 mg/kg body weight), 12.7% in series [2] (10 mg/kg body weight), 20.0% in series [2] (25 mg/kg body weight) and 21.9% in series [2] (50 mg/kg body weight). In addition, the “Rate of inhibition of the primary aggregation of platelets by ADP” value (“Rate of inhibition … of platelets by ADP” for short) is listed as 10.9% in series [3] (0.5 × 10^-4 mol. conc.); 52.4% in series [3] (0.75 × 10^-4 mol. conc.); 82.3% in series [3] (1.0 × 10^-4 mol. conc.); 96.9% in series [3] (2.5 × 10^-4 mol. conc.); 97.7% in series [3] (5.0 × 10^-4 mol. conc.). Further, the “inhibition activity of thrombocyte (platelet) aggregation” value in series [4] was “strong inhibition activity”.
On to `CCOC(=O)COc1ccc2c(C)c(CCN(CC)CC)c(=O)oc2c1` [Carbochromen], for which the results for the “Rate of inhibition of the aggregation” value in series [1] (0.5 × 10^-4 mol. conc.), in series [1] (1 × 10^-4 mol. conc.) and in series [1] (5 × 10^-4 mol. conc.) were 5.12 ± 2.20%, 12.75 ± 2.26% and 15.95 ± 1.87%, respectively.
For `COc1ccc2c(c1)c(CC(=O)O)c(C)n2C(=O)c1ccc(Cl)cc1` [Indomethacin], the “Rate of inhibition of the aggregation” value came to 8.18 ± 2.21% in series [1] (0.5 × 10^-4 mol. conc.), 0.85 ± 0.20% in series [1] (1 × 10^-4 mol. conc.) and 64.66 ± 1.76% in series [1] (5 × 10^-4 mol. conc.). Moreover, the “Rate of inhibition of the platelet aggregation by ADP” value in series [2] (5 mg/kg body weight) is 12.5%; in series [2] (10 mg/kg body weight) it was 12.4%; in series [2] (25 mg/kg body weight), 11.2%. Moreover, the results for the “Rate of inhibition … of platelets by ADP” value in series [3] (1.0 × 10^-4 mol. conc.), in series [3] (2.5 × 10^-4 mol. conc.) and in series [3] (5.0 × 10^-4 mol. conc.) were 8.0%, 31.5% and 71.4%, respectively.
For `CC(=O)Oc1ccccc1C(=O)O` [Aspirin], the “Rate of inhibition of the aggregation” value in series [1] (0.5 × 10^-4 mol. conc.) is recorded as 6.51 ± 1.86%; in series [1] (1 × 10^-4 mol. conc.) it was -15.81 ± 5.65%; in series [1] (5 × 10^-4 mol. conc.), -7.11 ± 0.98%. In addition, the “Rate of inhibition of the platelet aggregation by ADP” value in series [2] (50 mg/kg body weight) is 0%; in series [2] (100 mg/kg body weight), 4.3%. Also, the entries for the “Rate of inhibition … of platelets by ADP” value in series [3] (1.0 × 10^-4 mol. conc.), in series [3] (2.5 × 10^-4 mol. conc.) and in series [3] (5.0 × 10^-4 mol. conc.) were 10.6%, 28.8% and 60.4%, respectively.
As for `CC(C(=O)O)c1cccc(C(=O)c2ccccc2)c1` (centres unmarked) [Ketoprofen], the “Rate of inhibition of the platelet aggregation by ADP” value was 7.2% in series [2] (10 mg/kg body weight), 13.5% in series [2] (25 mg/kg body weight) and 18.6% in series [2] (50 mg/kg body weight). Moreover, the “Rate of inhibition … of platelets by ADP” value amounted to 19.6% in series [3] (1.0 × 10^-4 mol. conc.), 36.0% in series [3] (2.5 × 10^-4 mol. conc.) and 71.5% in series [3] (5.0 × 10^-4 mol. conc.).
